The source of these data is patent US6025370A, “Quinolonecarboxylic acid derivatives or salts thereof” (Toyama Chemical Co., Ltd., priority 1996, dated 2000).

One data set has as its system S. aureus FDA209P. Kind of data set: Antibacterial activity (MIC), S. aureus FDA209P. It is filed as cell-based, Staphylococcus aureus. The method, then: (§1) According to the standard method of Japan Society of Chemotherapy [CHEMOTHERAPY, vol. 29, No. 1, pages 76-79 (1981)], a loopful of a cell suspension obtained by culturing in Mueller Hinton broth (mfd. by Difco) at 37° C. for 20 hours and adjusted to a concentration of 10^6 cells/plate (10^8 cells/ml) was inoculated into a Mueller Hinton agar medium (mfd. by Difco) containing the test compound, followed by incubation at 37° C. for 20 hours. […]

For a further data set, the system named is S. aureus F-137. Kind of data set: Antibacterial activity (MIC), S. aureus F-137 (β-lactamase-producing). The format is cell-based. As to conditions: 10^6 cells/plate, 37° C., 20 hours. On the procedure: (§2) According to the standard method of Japan Society of Chemotherapy [CHEMOTHERAPY, vol. 29, No. 1, pages 76-79 (1981)], a loopful of a cell suspension obtained by culturing in Mueller Hinton broth (mfd. by Difco) at 37° C. for 20 hours and adjusted to a concentration of 10^6 cells/plate (10^8 cells/ml) was inoculated into a Mueller Hinton agar medium (mfd. by Difco) containing the test compound, followed by incubation at 37° C. for 20 hours. […] In Table 1, *1 to *4 denote the following strains:
2: β-lactamase-producing S. aureus

A further data set concerns S. aureus F-597. The data set can be described thus: Antibacterial activity (MIC), S. aureus F-597 (methicillin-resistant). It is filed as cell-based. As to conditions: Mueller Hinton agar, 10^6 cells/plate, 37° C. On the procedure: as §2
3: methicillin-resistant S. aureus

The next data set has as its system E. coli NIHJ JC-2. The data set can be described thus: Antibacterial activity (MIC), E. coli NIHJ JC-2. The format is cell-based, Escherichia coli. The method, then:
as §1

A further data set can be described thus: in vivo. Particulars: mouse, intravenous, ddy strain mice, solution in 0.1 N aqueous sodium hydroxide, read-out: median lethal dose (LD50). The method, then:
Each test compound was intravenously administered to groups of 4 ddy strain mice (body weight: 30±1 g) each, whereby its acute toxicity was investigated. In this case, the compound was administered in the form of a solution prepared by dissolving the compound in a 0.1 N aqueous sodium hydroxide solution.

The mark [1] stands for this setting: Staphylococcus aureus, S. aureus FDA209P, Mueller Hinton agar, 10^6 cells/plate, 37° C., 20 hours, read-out: MIC.
Where [2] appears, read: Staphylococcus aureus, F137, Mueller Hinton agar, read-out: MIC.
The mark [3] stands for this setting: Staphylococcus aureus, F597, 20 h, read-out: MIC.
The mark [4] stands for this setting: Escherichia coli, NIHJJC2, E. coli NIHJ JC-2, Mueller Hinton agar, 10^6 cells/plate, 37° C., 20 hours, read-out: MIC.

Structures are written as SMILES. Values after ≈ are worked out from the molar mass of the structure shown. Read-outs that look alike come from different tables or passages of the source.

By MIC is commonly meant the smallest concentration in the dilution series that meets the test's criterion for growth inhibition. By LD50 is commonly meant the dose at which mortality reaches 50%. `CC1NCc2cc(-c3ccc4c(=O)c(C(=O)O)cn(C5CC5)c4c3OC(F)F)ccc21` (racemic) [g, (±)-1-Cyclopropyl-8-difluoromethoxy-7-(1-methyliso-indolin-5-yl)-1,4-dihydro-4-oxoquinoline-3-carboxylic acid]: the MIC is ≤ 0.05 µg/mL in the data set on S. aureus FDA209P (setting [1]), ≤ 0.05 µg/mL in the data set on S. aureus F-137 (setting [2]), 0.1 µg/mL (≈ 0.235 µM) in the data set with S. aureus F-597 (setting [3]) and ≤ 0.05 µg/mL in the data set with E. coli NIHJ JC-2 (setting [4]). For the same molecule, the LD50 in the data set “in vivo” was ≥ 200 mg/kg.
Regarding `CC1NCc2cc(-c3ccc4c(=O)c(C(=O)O)cn(C5CC5)c4c3OC(F)F)ccc21` (single isomer, unassigned; (+)) [h, (+)-1-Cyclopropyl-8-difluoromethoxy-7-(1-methyliso-indolin-5-yl)-1,4-dihydro-4-oxoquinoline-3-carboxylic acid], the MIC was ≤ 0.05 µg/mL with S. aureus FDA209P (setting [1]), ≤ 0.05 µg/mL in the data set on S. aureus F-137 (setting [2]), 0.2 µg/mL (≈ 0.469 µM) with S. aureus F-597 (20 hours) and ≤ 0.05 µg/mL with E. coli NIHJ JC-2 (setting [4]).
As to `CC1NCc2cc(-c3ccc4c(=O)c(C(=O)O)cn(C5CC5)c4c3OC(F)F)ccc21` (single isomer, unassigned; (-)) [i, (-)-1-Cyclopropyl-8-difluoromethoxy-7-(1-methyliso-indolin-5-yl)-1,4-dihydro-4-oxoquinoline-3-carboxylic acid], the MIC in the data set with S. aureus FDA209P (S. aureus FDA209P, Mueller Hinton agar, 10^6 cells/plate, 37° C., 20 hours) is ≤ 0.05 µg/mL; against S. aureus F-137 (Mueller Hinton agar), ≤ 0.05 µg/mL; in the data set on S. aureus F-597 (20 hours) it was ≤ 0.05 µg/mL; against E. coli NIHJ JC-2 (E. coli NIHJ JC-2, Mueller Hinton agar, 10^6 cells/plate, 37° C., 20 hours) it was ≤ 0.05 µg/mL. The LD50 in the data set “in vivo” is ≥ 200 mg/kg.
Regarding `Cc1c(-c2ccc3c(c2)CNC3)ccc2c(=O)c(C(=O)O)cn(C3CC3)c12` [a, 1-Cyclopropyl-7-(isoindolin-5-yl)-8-methyl-1,4-dihydro-4-oxoquinoline-3-carboxylic acid], the MIC is ≤ 0.05 µg/mL in the data set with S. aureus FDA209P (setting [1]), ≤ 0.05 µg/mL with S. aureus F-137 (setting [2]), 0.1 µg/mL (≈ 0.277 µM) in the data set on S. aureus F-597 (setting [3]) and ≤ 0.05 µg/mL in the data set on E. coli NIHJ JC-2 (setting [4]).
With `Cc1c(-c2cc(F)c3c(c2)CNC3)ccc2c(=O)c(C(=O)O)cn(C3CC3)c12` [b, 1-Cyclopropyl-7-(7-fluoroisoindolin-5-yl)-8-methyl-1,4-dihydro-4-oxoquinoline-3-carboxylic acid], the MIC in the data set with S. aureus FDA209P (setting [1]), in the data set on S. aureus F-137 (setting [2]), in the data set with S. aureus F-597 (setting [3]) and in the data set with E. coli NIHJ JC-2 (setting [4]) was ≤ 0.05 µg/mL throughout.
On to `COc1c(-c2ccc3c(c2)CNC3)ccc2c(=O)c(C(=O)O)cn(C3CC3)c12` [c, 1-Cyclopropyl-7-(isoindolin-5-yl)-8-methoxy-1,4-dihydro-4-oxoquinoline-3-carboxylic acid], for which the MIC with S. aureus FDA209P (setting [1]) was ≤ 0.05 µg/mL; with S. aureus F-137 (setting [2]), ≤ 0.05 µg/mL; in the data set with S. aureus F-597 (setting [3]), 0.1 µg/mL (≈ 0.266 µM); in the data set on E. coli NIHJ JC-2 (setting [4]) it was ≤ 0.05 µg/mL.
As to `COc1c(-c2cc(F)c3c(c2)CNC3)ccc2c(=O)c(C(=O)O)cn(C3CC3)c12` [d, 1-Cyclopropyl-7-(7-fluoroisoindolin-5-yl)-8-methoxy-1,4-dihydro-4-oxoquinoline-3-carboxylic acid], the minimum inhibitory concentration (MIC) with S. aureus FDA209P (setting [1]), with S. aureus F-137 (setting [2]), with S. aureus F-597 (setting [3]) and in the data set on E. coli NIHJ JC-2 (setting [4]) was ≤ 0.05 µg/mL throughout.
As to `O=C(O)c1cn(C2CC2)c2c(OC(F)F)c(-c3ccc4c(c3)CNC4)ccc2c1=O` [e, 1-Cyclopropyl-8-difluoromethoxy-7-(isoindolin-5-yl)-1,4-dihydro-4-oxoquinoline-3-carboxylic acid], the MIC is ≤ 0.05 µg/mL in the data set with S. aureus FDA209P (setting [1]), ≤ 0.05 µg/mL with S. aureus F-137 (setting [2]), 0.1 µg/mL (≈ 0.242 µM) with S. aureus F-597 (setting [3]) and ≤ 0.05 µg/mL in the data set on E. coli NIHJ JC-2 (setting [4]). Besides, the LD50 in “in vivo” is ≥ 200 mg/kg.
In the case of `O=C(O)c1cn(C2CC2)c2c(OC(F)F)c(-c3cc(F)c4c(c3)CNC4)ccc2c1=O` [f, 1-Cyclopropyl-8-difluoromethoxy-7-(7-fluoroiso-indolin-5-yl)-1,4-dihydro-4-oxoquinoline-3-carboxylic acid], the MIC with S. aureus FDA209P (setting [1]), in the data set with S. aureus F-137 (setting [2]), in the data set with S. aureus F-597 (setting [3]) and with E. coli NIHJ JC-2 (setting [4]) was ≤ 0.05 µg/mL in each case.
On to `O=C(O)c1cn(C2CC2)c2cc(N3CCNCC3)c(F)cc2c1=O` [j, 1-Cyclopropyl-6-fluoro-7-(1-piperazinyl)-1,4-dihydro-4-oxoquinoline-3-carboxylic acid, reference compound], for which the MIC with S. aureus FDA209P (Staphylococcus aureus, FDA209P, 20 h) was 0.2 µg/mL (≈ 0.604 µM); with E. coli NIHJ JC-2 (Escherichia coli, NIHJJC2, 20 h), ≤ 0.05 µg/mL.
